Nine compounds from PubChem BioAssay (NCI) can be followed below.

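Exposure lasted 48 hours, with cells grown in 96-well plates and compounds tested at five concentrations. GI50: concentration for 50% inhibition of growth. TGI: concentration producing complete growth inhibition.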 Where only a bound is given, the exact number is not on record here.

What all share (assay): inhibition of tumour cell growth, NCI panel, 48 h
Experiment [1] has as its system 786-0 renal.
For experiment [2], the system named is ACHN renal.
Experiment [3] deals with HL-60(TB) leukemia.
Experiment [4] concerns MALME-3M melanoma.
For experiment [5], the system named is OVCAR-3 ovarian.
Experiment [6] deals with OVCAR-4 ovarian.
For experiment [7], the system named is OVCAR-8 ovarian.
Experiment [8] relates to SR leukemia.
Experiment [9] relates to U251 CNS.
Experiment [10] concerns UACC-62 melanoma.

In the case of `Nc1ncnc2sc(Nc3ccccc3)nc12`, the TGI in [1] is over 100 µM; in [2] it was over 100 µM; in experiment [3], 64.7 µM; in experiment [4], over 100 µM; in experiment [5], over 100 µM; in experiment [6], over 100 µM. Also, the TGI in experiment [7], in experiment [8], in [9] and in experiment [10] was over 100 µM in each case.
For the compound `Cc1ccccc1CNc1c2ccccc2nc2ccccc12`, the GI50 was 2.54 µM in experiment [1]; 1.65 µM in [2]; 2.17 µM in experiment [3]; 1.66 µM in [4]; 2.39 µM in [5]; 1.92 µM in [6]. Also, the GI50 is 2.63 µM in experiment [7], 1.72 µM in [8], 2.91 µM in experiment [9] and 1.83 µM in experiment [10]. Moreover, the TGI in experiment [1] amounted to 7.47 µM; in experiment [2] it was 3.66 µM; in [3], 5.06 µM; in experiment [4] it was 3.11 µM; in experiment [5], 5.93 µM; in [6], 6.4 µM. For the same compound, the TGI in experiment [7] was 12.2 µM; in experiment [8], 5.87 µM; in experiment [9], 11.4 µM; in experiment [10], 4.28 µM.
Regarding `Cc1n(Cc2ccc3ccccc3n2)cc[n+]1Cc1ccc2ccccc2c1`, the GI50 in experiment [1] was 4.36 µM; in experiment [2], 9.46 µM; in [3], 0.344 µM; in experiment [4] it was 0.394 µM; in [5], 0.515 µM; in [6], 0.342 µM. Further, the GI50 in [7] is 1.29 µM; in experiment [8] it was 0.565 µM; in [9], 0.384 µM; in [10] it was 0.933 µM. Also, the TGI stood at 18.2 µM in experiment [1]; 46.4 µM in [2]; 1.46 µM in experiment [3]; 2.37 µM in experiment [4]; 5.1 µM in experiment [5]; 11.3 µM in experiment [6]. The TGI came to 11.2 µM in [7], 3.24 µM in experiment [8], 12.2 µM in [9] and 3.61 µM in [10].
Regarding `CCOC(=O)c1cc2cc(OCc3ccccc3)ccc2[nH]1`, the GI50 is over 100 µM in experiment [1]; over 100 µM in [2]; 12.2 µM in [3]; over 100 µM in experiment [4]; over 100 µM in experiment [5]; over 100 µM in experiment [6]. Further, the GI50 in [7], in experiment [8], in [9] and in experiment [10] was over 100 µM each time. Also, the TGI was over 100 µM in experiment [1]; over 100 µM in experiment [2]; 66.7 µM in [3]; over 100 µM in experiment [4]; over 100 µM in experiment [5]; over 100 µM in experiment [6]. Moreover, the TGI in [7], in experiment [8], in experiment [9] and in [10] was over 100 µM in each case.
Regarding `O=CC(O)C(O)C(OC1OC(CO)C(O)C(O)C1O)C(O)CO` (centres undefined) (tested in a mixture with another compound), the TGI is over 100 µM in experiment [1]; over 100 µM in experiment [2]; 64.1 µM in experiment [3]; over 100 µM in [4]; over 100 µM in experiment [5]; over 100 µM in [6]. Besides, the TGI was over 100 µM in experiment [7], 33.1 µM in [8], over 100 µM in experiment [9] and over 100 µM in [10].
As to `CCc1c(C#N)c(SC(C(N)=O)c2ccccc2)nc(N2CCC(N)CC2)c1C#N` (centres undefined), the GI50 in [1] was 14.8 µM; in experiment [2], 18.1 µM; in experiment [3] it was 10.2 µM; in experiment [4] it was 14.6 µM; in experiment [5] it was 14.5 µM; in [6], 15.5 µM. In addition, the GI50 is 15.9 µM in [7], 16.2 µM in [8], 15.7 µM in experiment [9] and 15 µM in experiment [10]. Moreover, the TGI in [1] came out at 28.3 µM; in experiment [2], 38.8 µM; in experiment [3] it was 25.9 µM; in [4], 28.1 µM; in [5], 28.2 µM; in experiment [6] it was 34.3 µM. In addition, the TGI in experiment [7] stood at 33.7 µM; in [8], 38.1 µM; in experiment [9], 30.5 µM; in [10], 28.4 µM.
`O=C(Nc1nc2c(s1)CCc1c-2c(Br)n(Cc2ccccc2)c1Br)c1ccccc1`: the GI50 in experiment [1] is 2.73 µM; in [2] it was 1.88 µM; in [3] it was 45.3 µM; in experiment [4], 2.57 µM; in experiment [5], 4.24 µM; in [6], 1.8 µM. The GI50 in experiment [7] is 3.91 µM; in experiment [8], 12.1 µM; in [9] it was 3.42 µM; in [10], 4.66 µM. The TGI in experiment [1] was 11.9 µM; in [2], 7.35 µM; in experiment [3], over 100 µM; in experiment [4] it was 10.2 µM; in [5], 17.3 µM; in experiment [6], 7.54 µM. Also, the TGI in experiment [7] is over 100 µM; in experiment [8], over 100 µM; in [9], 11.3 µM; in experiment [10] it was over 100 µM.
Consider `COC(=O)C1=Nc2ccc(F)cc2/C1=C/c1sc(=S)[nH]c1O`, for which the GI50 in experiment [1] is 0.122 µM; in experiment [2] it was 0.0697 µM; in experiment [3], 0.263 µM; in [4], 0.191 µM; in experiment [5], 0.0441 µM; in experiment [6], 0.692 µM. The GI50 in experiment [7] was 0.202 µM; in experiment [8], 0.0476 µM; in experiment [9], 0.0838 µM; in [10], 0.248 µM. Besides, the TGI in experiment [1] worked out at 15.1 µM; in experiment [2], 18 µM; in experiment [4], 29 µM; in experiment [5] it was 3.66 µM; in [6], 23.8 µM; in experiment [7] it was 37.7 µM. Besides, the TGI in experiment [8] was over 100 µM; in [9] it was 14.2 µM; in experiment [10] it was over 47 µM.
As for `O=S(=O)(Cc1ccccc1)SCc1ccccc1`, the TGI in experiment [1] is 51.5 µM; in [2] it was over 100 µM; in experiment [3] it was 21.5 µM; in experiment [4] it was 73.6 µM; in experiment [5], 58.5 µM; in experiment [6] it was 54 µM. Besides, the TGI is 28.8 µM in experiment [7], over 66.4 µM in experiment [8], 66.2 µM in experiment [9] and 55.8 µM in experiment [10].
